# Results as given in patent US20090088419A1, “PYRIDYL ACETIC ACID COMPOUNDS” (TAKEDA PHARMACEUTICAL COMPANY LIMITED, priority 2005, published 2009).
# Counter-ions that a name gives are not always drawn.
# Molecular target: T1, dipeptidyl peptidase IV (Rattus norvegicus, UniProt P14740)
# T1 construct: from tissue; host or cells: SD rat blood plasma
# Assay: Determination of dipeptidyl peptidase IV inhibitory activity in rat plasma (Experimental Example 1)
# Format: biochemical
# Details: plasma of SD rat, substrate Gly-Pro-p-NA, 30° C., absorbance 405 nm after 1 hr; Table 5
# Method: (§1) Determination of Dipeptidyl Peptidase IV Inhibitory Activity in Rat Plasma
# (§2) A dimethylformamide solution (1 μL) containing the test compound was added to a mixture of water (69 μL), 1 M Tris-hydrochloride buffer (10 μL, pH 7.5) and 1 mM aqueous Gly-Pro-p-NA solution (100 μL) to prepare a mixed solution. Plasma (20 μL) prepared from blood of SD rat according to a conventional method was added to the above-mentioned mixed solution and the enzyme reaction was started at 30° C. The absorbance after 0 hr. and 1 hr. was measured using a microplate reader at a wavelength of 405 nm and an increase (AODs) was determined. At the same time, an increase (AODc) in absorbance of the reaction mixture without the test compound, and an increase (AODb) in absorbance of the reaction mixture without the test compound and the enzyme were determined and the inhibition rate of dipeptidyl peptidase IV enzyme activity was calculated from the following formula:
# (§3) {1−[(ΔODs−ΔODb)/(ΔODc−ΔODb)]}×100
# The dipeptidyl peptidase IV inhibitory activity of the test compound group is expressed in IC50 value (nM) and shown in Table 5.
# T1 sequence (P14740 37-767 limits assumed): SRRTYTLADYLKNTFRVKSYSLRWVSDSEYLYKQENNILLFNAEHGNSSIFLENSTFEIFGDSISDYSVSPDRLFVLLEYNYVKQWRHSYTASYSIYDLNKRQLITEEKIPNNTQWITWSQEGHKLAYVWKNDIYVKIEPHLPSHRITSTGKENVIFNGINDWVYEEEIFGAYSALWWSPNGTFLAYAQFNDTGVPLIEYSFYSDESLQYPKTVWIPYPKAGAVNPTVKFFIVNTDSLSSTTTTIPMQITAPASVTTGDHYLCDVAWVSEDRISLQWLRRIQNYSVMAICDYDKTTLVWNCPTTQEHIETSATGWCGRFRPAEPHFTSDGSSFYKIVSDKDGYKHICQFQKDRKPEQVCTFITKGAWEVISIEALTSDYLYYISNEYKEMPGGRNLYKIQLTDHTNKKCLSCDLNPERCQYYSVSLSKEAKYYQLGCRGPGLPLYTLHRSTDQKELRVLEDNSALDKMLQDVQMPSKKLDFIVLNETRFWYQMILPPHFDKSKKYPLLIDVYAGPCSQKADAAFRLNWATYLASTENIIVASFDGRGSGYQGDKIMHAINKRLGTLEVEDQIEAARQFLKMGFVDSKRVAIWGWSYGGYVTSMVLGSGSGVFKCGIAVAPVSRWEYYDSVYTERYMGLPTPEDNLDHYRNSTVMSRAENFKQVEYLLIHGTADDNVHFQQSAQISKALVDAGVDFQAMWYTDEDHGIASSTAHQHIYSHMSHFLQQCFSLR
row,SMILES,IC50 [nM]
1,CCc1nc(CC(C)(C)C)c(CN)c(-c2ccc(C)cc2)c1CC(=O)Nc1ccc(C(C)=O)cc1 [Example 80],11
2,"Cc1ccc(-c2c(CN)c(CC(C)C)nc(CC(C)C)c2CC(=O)N2CCC(S(C)(=O)=O)C2)cc1 (stereo not shown) [Example 10, [(2,6-diisobutyl-4-(4-methylphenyl)-5-{2-[3-(methylsulfonyl)pyrrolidin-1-yl]-2-oxoethyl}pyridin-3-yl)methyl]amine ditrifluoroacetate]",0.85
3,CCc1nc(CC(C)(C)C)c(CN)c(-c2ccc(C)cc2)c1CC(=O)N1CCC[C@H]1C(N)=O [Example 87],0.32
4,CCc1nc(CC(C)(C)C)c(CN)c(-c2ccc(C)cc2)c1CC(=O)N1CCN(C(C)=O)CC1 [Example 89],3.6
5,Cc1ccc(-c2c(CN)c(CC(C)C)nc(CC(C)C)c2CC(=O)N2CCC[C@H]2C(N)=O)cc1 [Example 45],2
6,CC(=O)N1CCN(C(=O)Cc2c(CC(C)C)nc(CC(C)C)c(CN)c2-c2ccc(C)cc2)CC1 [Example 47],4.8
7,Cc1ccc(-c2c(CN)c(CC(C)C)nc(CC(C)C)c2CC(=O)N2C[C@@H](C)O[C@@H](C)C2)cc1 [Example 20],8.4
8,"CCc1nc(CC(C)C)c(CN)c(-c2ccc(C)cc2)c1CC(=O)O [Example 1, [5-(aminomethyl)-2-ethyl-6-isobutyl-4-(4-methylphenyl)pyridin-3-yl]acetic acid]",33
9,CCc1nc(CC(C)(C)C)c(CN)c(-c2ccc(C)cc2)c1CC(=O)N1C[C@@H](C)O[C@@H](C)C1 [Example 64],1.7

# Molecular target: T1, dipeptidyl peptidase IV
# Assay: Determination of dipeptidyl peptidase IV inhibitory activity in rat plasma (Experimental Example 2)
# Format: biochemical
# Details: plasma of SD rat, same manner as Experimental Example 1; Table 6
# Method: as §2, §3, §1
row,SMILES,IC50 [nM]
1,"CCc1nc(CC(C)(C)C)c(CN)c(-c2ccc(C)cc2)c1CC(=O)Nc1cccc(S(C)(=O)=O)c1 [Example 7, 2-[5-(aminomethyl)-2-ethyl-4-(4-methylphenyl)-6-neopentylpyridin-3-yl]-N-[3-(methylsulfonyl)phenyl]acetamide dihydrochloride]",51
2,"CCc1nc(CC(C)(C)C)c(CN)c(-c2ccc(C)cc2)c1CC(=O)Nc1cccc(C(C)=O)c1 [Example 5, N-(3-acetylphenyl)-2-[5-(aminomethyl)-2-ethyl-4-(4-methylphenyl)-6-neopentylpyridin-3-yl]acetamide dihydrochloride]",5.1
3,"Cc1ccc(-c2c(CN)c(CC(C)C)nc(CC(C)C)c2CC(=O)O)cc1 [Example 2, [5-(aminomethyl)-2,6-diisobutyl-4-(4-methylphenyl)pyridin-3-yl]acetic acid dihydrochloride]",35
4,"CCc1nc(CC(C)(C)C)c(CN)c(-c2ccc(C)cc2)c1CC(=O)N1CCC[C@H]1C(N)=O [Example 6, 1-{[5-(aminomethyl)-2-ethyl-4-(4-methylphenyl)-6-neopentylpyridin-3-yl]acetyl}-L-prolinamide]",2.7
